Test results reported in patent US5118685A, “Aminopropanol derivatives of substituted 2-hydroxy-propiophenones, and therapeutic agents containing these compounds” (BASF Aktiengesellschaft, priority 1983, dated 1992).

What was measured:
[1] = test system: aconitine-induced arrythmia in the dog; experiment: Antiarrhythmic action on aconitine-induced arrythmia in the dog (oral administration); type: in vivo, dog (male or female mongrel dogs); details: for change in vivo at 10 mg/kg: Canis lupus familiaris, po, 1 h, read-out: Prolongation of aconitin infusion period; for prolongation of time before arrhythmias appeared, relative to that obtained with propafenone and diprafenone (times greater): dog, 10 mg/kg, oral
Method: Male or female mongrel dogs weighing 12-15 kg were used. The substances to be tested were administered orally, 40 minutes after induction of anesthesia using Na pentobarbital (30 mg/kg i.v.). Cardiac arrhythmias were induced by infusion of aconitine (5 μg per kg per min), the infusion beginning 60 minutes after administration of the substance. In the ECG of untreated animals, arrhythmias (loss or inversion of P, ventricular tachyarrhythmias) occurred after an average infusion time of 6.4±0.29 min.
When the substances according to the invention were administered in a dose of 10 mg/kg, the time which elapsed before arrhythmias appeared was prolonged. […]; the antiarrhythmic activity is higher (Table 1).

[2] = in vivo; details: mouse, ip, single administration i.p., female NMRI mice, approximate values
[3] = test system: arrhythmias after infarct in the conscious dog; experiment: Antiarrhythmic action on arrhythmias after infarct (coronary ligature) in the conscious dog; type: in vivo, dog (male and female beagle dogs); details: for inhibition of arrhythmias compared with propafenone and diprafenone (in words) / Increase in normal heart actions: oral
Method: The substances were also tested with regard to their action on arrhythmias after coronary ligature. This method permits conclusions to be drawn as to the action on arrhythmias after infarct in man. Male and female beagle dogs weighing 9-15 kg were used. The ramus descendens of the left coronary artery was ligatured by a modified method of Harris (Circulation, 1, 1318-1328, 1950). Tachycardic, usually ventricular arrhythmias of various origins resulted which were detectable on the ECG, with P loss QRS deformation and T wave elevation. The measure for determining antiarrhythmic action was the frequency (%) of normal heart actions ascertained during a 100-minute control period at 5-minute intervals. Hearbeats had to be at most 29% of the normal during this control period before a substance was administered. After administration, the ECG was run, as in the control period, for 100 minutes at 5-minute intervals, and then for a further 200 minutes at 10-minute intervals.

With `CCCNCC(O)COc1ccccc1C(=O)CCc1cnn(C)c1` (centres unmarked) [Example 9] the change in vivo at 10 mg/kg [1] was 154%, the LD50 [2] was 31.6 mg/kg and the “inhibition of arrhythmias compared with propafenone and diprafenone (in words)” value [3] was “inhibited arrhythmias to just as great an extent as propafenone, and to a far greater extent than diprafenone”. The “oral dosage rate giving inhibition of arrhythmias as great as propafenone (times less)” value ([3]; relative to propafenone) was “about 5 times less”.

`CC(C)NCC(O)COc1ccccc1C(=O)CCc1cccn1C` (centres unmarked) [Example 3] gave a change in vivo at 10 mg/kg [1] of 85% and an LD50 [2] of 68.1 mg/kg.

With `CC(C)NCC(O)COc1ccccc1C(=O)CCc1ccn(C)c1` (centres unmarked) [Example 7] the change in vivo at 10 mg/kg [1] was 193%, the “prolongation of time before arrhythmias appeared, relative to that obtained with propafenone and diprafenone (times greater)” value [1] was “six times” and the LD50 [2] was 46.4 mg/kg. The “inhibition of arrhythmias compared with propafenone and diprafenone (in words)” value [3] was “more active than propafenone and diprafenone at the same rate” and the “Increase in normal heart actions” value ([3]; dose 10.0 mg/kg) was 92%.

`CCC(C)(C)NCC(O)COc1ccccc1C(=O)CCc1cnn(C)c1` (centres unmarked) [Example 12] showed a change in vivo at 10 mg/kg [1] of 137% and an LD50 [2] of 68.1 mg/kg.

With `CCC(C)(C)NCC(O)COc1ccccc1C(=O)CCc1ccccc1` (centres unmarked) [diprafenone, 2-[2-hydroxy-3-(1,1-dimethylpropylamino)-propoxy]-ω-phenylpropiophenone, reference compound] the change in vivo at 10 mg/kg [1] was 33%, the LD50 [2] was 68.1 mg/kg and the “Increase in normal heart actions” value ([3]; dose 21.5 mg/kg) was 43%.

For `CC(C)N(CC(O)COc1ccccc1C(=O)CCc1cccn1C)C(C)C` (centres unmarked) [Example 5], the change in vivo at 10 mg/kg [1] was 85%, the LD50 [2] was 68.1 mg/kg and the “inhibition of arrhythmias compared with propafenone and diprafenone (in words)” value [3] was “more active than propafenone and diprafenone at the same rate”. The “Increase in normal heart actions” value ([3]; dose 10.0 mg/kg) was 66%.

For `CCCNCC(O)COc1ccccc1C(=O)CCc1cccn1C` (centres unmarked) [Example 4], the change in vivo at 10 mg/kg [1] was 70%, the “prolongation of time before arrhythmias appeared, relative to that obtained with propafenone and diprafenone (times greater)” value [1] was “twice” and the LD50 [2] was 46.4 mg/kg.
